Data taken from ChEMBL document CHEMBL5550150, “Discovery of 9H-pyrimido[4,5-b]indole derivatives as dual RET/TRKA inhibitors” (Bioorg Med Chem, 2024).
Calls of active or inactive are those of the source. No cut-off for these calls is given here.

Key:
A549 [1] = assay: Antiproliferative activity against human A549 cells harbouring KRAS assessed as reduction in cell viability; type: functional
LC-2-ad [2] = assay: Antiproliferative activity against human LC-2-ad cells harbouring RET assessed as reduction in cell viability; type: functional
KM12 [3] = assay: Antiproliferative activity against human KM12 cells harbouring TRK assessed as reduction in cell viability; type: functional
[4] = biological target: T1, High affinity nerve growth factor receptor (Homo sapiens, UniProt P04629); assay: Inhibition of TRK autophosphorylation (unknown origin)
Target sequence in this assay (P04629 33-796 limits assumed): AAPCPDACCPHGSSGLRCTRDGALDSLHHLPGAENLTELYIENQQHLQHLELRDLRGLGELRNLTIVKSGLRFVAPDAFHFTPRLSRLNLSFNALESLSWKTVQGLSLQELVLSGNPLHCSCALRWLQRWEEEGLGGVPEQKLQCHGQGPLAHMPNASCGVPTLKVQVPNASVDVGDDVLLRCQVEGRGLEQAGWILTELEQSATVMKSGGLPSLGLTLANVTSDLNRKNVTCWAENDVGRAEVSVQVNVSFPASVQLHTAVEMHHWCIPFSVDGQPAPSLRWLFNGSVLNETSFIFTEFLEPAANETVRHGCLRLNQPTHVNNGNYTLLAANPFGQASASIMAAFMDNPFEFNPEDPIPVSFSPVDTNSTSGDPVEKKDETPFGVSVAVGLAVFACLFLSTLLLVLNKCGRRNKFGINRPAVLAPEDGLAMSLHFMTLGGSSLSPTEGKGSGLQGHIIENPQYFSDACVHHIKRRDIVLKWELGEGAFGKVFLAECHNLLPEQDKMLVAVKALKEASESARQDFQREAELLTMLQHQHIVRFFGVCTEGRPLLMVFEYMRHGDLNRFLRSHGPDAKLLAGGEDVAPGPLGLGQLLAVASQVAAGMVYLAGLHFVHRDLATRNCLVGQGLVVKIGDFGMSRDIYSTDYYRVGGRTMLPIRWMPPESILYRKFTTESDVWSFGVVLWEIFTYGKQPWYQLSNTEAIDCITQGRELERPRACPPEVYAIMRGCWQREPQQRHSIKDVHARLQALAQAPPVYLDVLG

KM12 [5] = assay: Induction of cell cycle arrest in human KM12 cells assessed as accumulation of cells at G1 phase at 1 uM incubated for 24 hrs by flow cytometry analysis; type: functional, cell-based
LC-2-ad [6] = assay: Induction of cell cycle arrest in human LC-2-ad cells assessed as accumulation of cells at G1 phase at 1 uM incubated for 24 hrs by flow cytometry analysis; type: functional, cell-based
[7] = biological target: T1, High affinity nerve growth factor receptor; assay: Inhibition of TRK autophosphorylation in human LC-2-ad cells at 0.01 to 1 uM measured after 24 hrs by Western blot analysis; type: cell-based; settings: dose 0.01-1 µM
Target sequence in this assay (P04629 33-796 limits assumed): as above

[8] = biological target: T1, High affinity nerve growth factor receptor; assay: Inhibition of TRK autophosphorylation in human KM12 cells at 0.01 to 1 uM measured after 24 hrs by Western blot analysis; type: cell-based; settings: dose 0.01-1 µM
Target sequence in this assay (P04629 33-796 limits assumed): as above

[9] = biological target: T1, High affinity nerve growth factor receptor; assay: Inhibition of TRK (unknown origin)
Target sequence in this assay (P04629 whole entry): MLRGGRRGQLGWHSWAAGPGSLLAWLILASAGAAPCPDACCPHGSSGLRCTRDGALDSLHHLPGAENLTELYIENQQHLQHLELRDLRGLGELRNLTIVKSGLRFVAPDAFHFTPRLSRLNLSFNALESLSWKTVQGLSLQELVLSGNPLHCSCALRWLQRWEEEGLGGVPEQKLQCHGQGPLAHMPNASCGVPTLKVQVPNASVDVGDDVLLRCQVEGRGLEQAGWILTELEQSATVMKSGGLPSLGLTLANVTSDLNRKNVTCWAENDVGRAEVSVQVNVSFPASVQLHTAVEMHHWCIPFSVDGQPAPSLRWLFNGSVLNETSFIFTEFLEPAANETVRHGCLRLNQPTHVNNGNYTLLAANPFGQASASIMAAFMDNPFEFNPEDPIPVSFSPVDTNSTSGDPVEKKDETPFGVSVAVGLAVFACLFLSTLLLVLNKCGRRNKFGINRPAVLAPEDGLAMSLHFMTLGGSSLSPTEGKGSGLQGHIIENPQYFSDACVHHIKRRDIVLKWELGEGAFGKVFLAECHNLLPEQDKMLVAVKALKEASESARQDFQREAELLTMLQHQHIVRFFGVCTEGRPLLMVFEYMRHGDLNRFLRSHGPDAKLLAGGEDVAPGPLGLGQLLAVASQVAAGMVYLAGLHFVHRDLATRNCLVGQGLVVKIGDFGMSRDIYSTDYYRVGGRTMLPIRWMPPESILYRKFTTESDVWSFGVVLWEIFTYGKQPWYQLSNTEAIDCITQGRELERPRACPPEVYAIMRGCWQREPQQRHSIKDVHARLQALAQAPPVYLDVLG

LC-2-ad [10] = assay: Induction of cell cycle arrest in human LC-2-ad cells assessed as accumulation of cells at G1 phase at 0.01 uM incubated for 24 hrs by flow cytometry analysis; type: functional, cell-based
A549 [11] = assay: Induction of cell cycle arrest in human A549 cells assessed as accumulation of cells at G1 phase at 0.01 uM incubated for 24 hrs by flow cytometry analysis; type: functional, cell-based
KM12 [12] = assay: Induction of cell cycle arrest in human KM12 cells assessed as accumulation of cells at G1 phase at 0.01 uM incubated for 24 hrs by flow cytometry analysis; type: functional, cell-based
[13] = biological target: Proto-oncogene tyrosine-protein kinase receptor Ret (Homo sapiens, UniProt P07949); assay: Inhibition of 5FAM-tagged RET (unknown origin) using 5FAM-EPLYWSFPA as substrate incubated for 60 mins
Sequence of Proto-oncogene tyrosine-protein kinase receptor Ret (P07949 whole entry): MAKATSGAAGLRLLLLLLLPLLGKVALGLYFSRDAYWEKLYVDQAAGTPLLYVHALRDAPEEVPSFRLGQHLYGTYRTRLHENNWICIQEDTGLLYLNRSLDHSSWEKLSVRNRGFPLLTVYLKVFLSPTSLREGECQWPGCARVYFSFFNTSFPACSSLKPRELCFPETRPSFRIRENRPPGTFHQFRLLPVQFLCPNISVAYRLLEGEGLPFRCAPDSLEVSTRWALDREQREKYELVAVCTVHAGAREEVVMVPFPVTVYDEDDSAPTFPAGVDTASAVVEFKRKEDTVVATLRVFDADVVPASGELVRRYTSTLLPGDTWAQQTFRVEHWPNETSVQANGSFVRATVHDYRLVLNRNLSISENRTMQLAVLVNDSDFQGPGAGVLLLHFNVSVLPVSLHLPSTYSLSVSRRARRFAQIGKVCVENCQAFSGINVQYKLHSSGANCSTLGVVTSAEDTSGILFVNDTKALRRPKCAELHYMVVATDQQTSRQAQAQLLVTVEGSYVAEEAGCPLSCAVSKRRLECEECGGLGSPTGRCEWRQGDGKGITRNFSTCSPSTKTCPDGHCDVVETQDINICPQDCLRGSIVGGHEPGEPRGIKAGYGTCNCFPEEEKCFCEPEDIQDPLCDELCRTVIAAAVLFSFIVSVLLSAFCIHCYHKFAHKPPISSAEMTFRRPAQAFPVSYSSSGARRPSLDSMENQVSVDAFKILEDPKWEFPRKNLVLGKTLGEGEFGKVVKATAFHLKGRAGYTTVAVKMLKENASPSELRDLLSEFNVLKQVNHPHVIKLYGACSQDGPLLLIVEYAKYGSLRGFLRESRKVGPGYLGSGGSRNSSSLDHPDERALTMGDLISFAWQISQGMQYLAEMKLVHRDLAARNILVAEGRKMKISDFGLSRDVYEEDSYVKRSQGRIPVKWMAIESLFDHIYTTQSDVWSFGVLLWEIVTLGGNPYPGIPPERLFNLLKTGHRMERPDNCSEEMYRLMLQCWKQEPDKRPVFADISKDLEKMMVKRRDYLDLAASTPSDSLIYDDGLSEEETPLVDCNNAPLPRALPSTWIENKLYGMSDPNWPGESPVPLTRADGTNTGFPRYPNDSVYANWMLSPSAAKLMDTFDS

SMILES | GC50 (A549 [1]) | GC50 (LC-2-ad [2]) | GC50 (KM12 [3]) | inhibition [4] | Activity (KM12 [5]) | Activity (LC-2-ad [6]) | further results
COCCn1cc(-c2ccc3c(c2)[nH]c2ncnc(Nc4ccc(CC(=O)Nc5cc(C(C)(C)C)on5)cc4)c23)cn1 | 5880 nM | 360 nM | 590 nM | – | – | – | –
Cn1cc(-c2ccc3c(c2)[nH]c2ncnc(Nc4ccc(CC(=O)Nc5cc(C(C)(C)C)nn5C)cc4)c23)cn1 | – | – | – | Active | Active | Active | inhibition [7]: Active; inhibition [8]: Active
Cn1cc(-c2ccc3c(c2)[nH]c2ncnc(Nc4ccc(CC(=O)Nc5cc(C(C)(C)C)on5)cc4)c23)cn1 | – | – | – | Active | Active | Active | –
Cn1nc(C(C)(C)C)cc1NC(=O)Cc1ccc(Nc2ncnc3[nH]c4ccccc4c23)cc1 | – | – | – | Active | Active | Active | inhibition [7]: Active; inhibition [8]: Active
COc1cc2nccc(Oc3ccc(NC(=O)C4(C(=O)Nc5ccc(F)cc5)CC4)cc3)c2cc1OC [CABOZANTINIB] | – | – | – | – | – | – | IC50 [9]: 79 nM
O=C(Cc1ccc(Nc2ncnc3[nH]c4ccccc4c23)cc1)Nc1cccc(C(F)(F)F)c1 | >10000 nM | 940 nM | 490 nM | – | – | – | –
CNC(=O)c1cc(Oc2ccc(NC(=O)Nc3ccc(Cl)c(C(F)(F)F)c3)cc2)ccn1 [SORAFENIB] | 7200 nM | 540 nM | 3820 nM | – | – | – | Activity (LC-2-ad [10]): Active; Activity (A549 [11]): Active; Activity (KM12 [12]): Active
Cn1cc(-c2ccc3c(c2)ncn3-c2ccc(CC(=O)Nc3cc(C(C)(C)C)on3)cc2)cn1 | – | – | – | – | – | – | IC50 [9]: 1.6 nM; IC50 [13]: 1 nM
C[C@@H]1CCc2ncc(F)cc2[C@H]2CCCN2c2ccn3ncc(c3n2)C(=O)N1 [SELITRECTINIB] | >40000 nM | 25980 nM | 5 nM | – | – | – | Activity (LC-2-ad [10]): Active; Activity (A549 [11]): Active; Activity (KM12 [12]): Active
